Entries after “also recorded” stand apart in the source; their conditions may differ.
Experiments:
[1] = tested on: PI3K; test: PI3K kinase assay (PIP3 production) in insulin-stimulated HEK293 cells; type: cell-based; settings: HEK293 (human embryonic kidney cell line), insulin-activated, varying doses
Protocol: (§1) Insulin was used to activate the PI3K pathway in three different cell lines: (FIG. 5A) BEAS-2B (bronchial airway cell line), (FIG. 5B) BT549 (breast cancer cell line), and (FIG. 5C) HEK293 (human embryonic kidney cell line). The cell lines were then treated with varying doses of myo-inositol and LY-294002. PIP3 levels were measured to quantify the activation levels of the PI3K pathway (y-axis). […] Replication of these experiments produced similar results.
(§2) 80% confluent BEAS-2B, BT549, or HEK293 cells were starved in BEBM, RPMI, or DMEM medium, respectively (Clonetics, GibcoBRL). This media contained either 0.1% added supplements for the BEAS-2B cells or 0.1% fetal bovine serum for BT549 and HEK293 cells for 24 hrs. […] The production of PIP3 was evaluated by autoradiography and quantified by densitometry analysis and scintillation analysis. […]
(§3) A reduction in PI3K activity in patients that responded to myo-inositol with a regression of dysplasia in their airway reinforces the association between elevated PI3K activity levels and the presence of pre-neoplastic airway lesions. […] PI3K activity, as measured by PIP3 levels, was then quantified using a standard kinase assay protocol. For this experiment, three different cell lines were analyzed in replicate: BEAS-2B (airway), BT549 (breast cancer) and HEK293 (embryonic kidney). […]

[2] = tested on: dysplastic airway lesions; settings: cited from earlier work
[3] = tested on: PI3K; test: PI3K kinase assay (PIP3 production) in insulin-stimulated BT549 cells; type: cell-based; settings: BT549 (breast cancer cell line), insulin-activated, varying doses
Protocol: as §1, §2, §3

[4] = tested on: PI3K; test: PI3K kinase assay (PIP3 production) in insulin-stimulated BEAS-2B cells; type: cell-based; settings: BEAS-2B (bronchial airway cell line), insulin-activated, varying doses
Protocol: as §1, §2, §3

[5] = tested on: PI3K pathway; test: GSEA of PI3K gene sets in cytologically normal airway epithelium before versus after myo-inositol treatment; type: in vivo, human
Protocol: Cytologically normal airway epithelial samples from patients with dysplastic airway lesions at the University of British Columbia were collected before and after 2-3 months of treatment with myo-inositol (n=20, 10 patients with two samples each), as well as six additional samples collected pre-treatment with myo-inositol as part of a dose response study. In that study, bronchial brushing was performed in three separate 6-8th generation bronchial airways using a 1.7 mm diameter bronchial cytology brush (Hobbs Medical, Stafford Springs, Conn.). The brush was retrieved and immediately immersed in RNALater and kept frozen at −80° C. until assayed. Epithelial cell content of representative bronchial brushing samples has been quantitated by cytocentrifugation (ThermoShandon Cytospin, Pittsburgh, Pa.) of the cell pellet and staining with a cytokeratin antibody (Signet, Dedham Mass.). The cells in the bronchial brush contained >90% bronchial epithelial cells. […]
Gene Set Enrichment Analysis was calculated using GSEA v2. […] Genes were ranked using the following linear model (as calculated in R): Y=β0+β1+β2+b+ε Where Y is the expression of a gene, β0 is the intercept, β1 measures lung cancer risk (whether the sample has dysplasia or not), β2 is the cumulative cigarette smoke exposure for each person (pack-years), b is a random effect correcting for batch differences, and ε is the error term. […]

O[C@H]1[C@H](O)[C@@H](O)[C@H](O)[C@@H](O)[C@H]1O [myo-inositol]
PI3K activity, as measured by PIP3 levels [1]: inhibited PI3K activity levels in a dose-dependent manner; also recorded: drop in PIP3 levels
rate of dysplastic regression ([2]; oral, 2-3 months, smokers with moderate-severe dysplasia, versus placebo-treated control patients): significantly increase the rate of dysplastic regression
side effects ([2]; taken orally): very minor side effects
PI3K activity, as measured by PIP3 levels [3]: inhibited PI3K activity levels in a dose-dependent manner; also recorded: drop in PIP3 levels
PI3K activity, as measured by PIP3 levels [4]: inhibited PI3K activity levels in a dose-dependent manner; also recorded: drop in PIP3 levels
change in expression of PI3K gene sets (GSEA), before versus after treatment ([5]; subjects that did not respond to treatment (n=3, 6 samples)): no change in the levels of the PI3K gene sets
change in expression of PI3K gene sets (GSEA), before versus after treatment ([5]; subjects who did respond to treatment (n=6, 12 samples), p=0.04, FDR Q=0.177): increased expression of genes in the PI3K Down gene set
